Source: PMC9338973, “Rosmarinus officinalis L. hexane extract: phytochemical analysis, nanoencapsulation, and in silico, in vitro, and in vivo anti-photoaging potential evaluation” (Scientific Reports, 2022)
In brackets after ≈: the same amount, converted by molar mass. Several values for one entry are separate records, joined by “and”; a condition that tells them apart may be missing. Equal values may be shown once.

Columns and labels:
[1] = target: T1, Porcine pancreatic elastase (Sus scrofa, UniProt P00772); assay: Anti-elastase assay (EnzCheck, fluorimetric); assay type: biochemical
T1 construct: purchased Molecular Probes
Experimental: The elastase inhibitory activity was assessed fluorimetrically using the EnzCheck® elastase assay kit (Molecular Probes, Laiden, Netherlands). A 1 mg/mL stock solution of the substrate (DQ elastin) was prepared in deionized water. Porcine pancreatic elastase stock solution was prepared in deionized water at 100 U/mL and dilutions were made in Tris–HCL buffer. Pre-incubation of 50 µL of different dilutions of the extract (inhibitor) with 100 µL of the enzyme was done for 15 min followed by the addition of the substrate (50 µL). Controls were prepared with buffer instead of extract. Fluorescence intensity was continuously measured for 20 min in a fluorescence microplate reader equipped with standard fluorescein filters (λex 505 nm, λem 515 nm). Subtraction of background fluorescence was done in no-enzyme wells. 1,10-Phenathrolinewas used as a standard elastase inhibitor. The IC50 is the concentration of the extract required to inhibit 50% of elastase activity.
The percentage of elastase inhibition(%)=(1-S/C)×100 where S is the corrected fluorescence of the extract samples and C is the corrected fluorescence of the control.

[2] = target: collagenase; assay: Anti-collagenase assay (fluorimetric, BODIPY-gelatin); assay type: biochemical
Experimental: The evaluation of collagenase inhibitory activity was performed fluorimetrically in a microplate reader. Briefly, the self-quenched BODIPY conjugate of gelatin (Type B) was used as a fluorogenic substrate to monitor the activity of collagenase (Biovision, CA, USA). Collagenase stock solution was prepared in 50 mM Tricine buffer at 0.8 U/mL and the substrate (BODIPY) was dissolved in Tricine buffer to 2 mM. One microliter of different concentrations of the extract (1, 10, 100, and 1000 µg/mL) was incubated with the 5 µL collagenase in buffer and 44 µL Tricine buffer for 15 min before adding the substrate. […] The reaction is initiated by mixing two µL of the substrate with the previous reaction mixture. Negative controls were prepared with the buffer. Fluorescence intensity was monitored (λex 490 nm, λem 520 nm, 515 nm cut-off) in a kinetic mode at 37 °C for 30–60 min.
The percentage of collagenase inhibition(%)=(1-S/C)×100 where S is the corrected fluorescence of the extract sample and C is the corrected fluorescence of the control.

[3] = DPPH radical scavenging activity
Experimental: The scavenging activity of the stable 2,2-diphenyl-1-picrylhydrazyl (DPPH) free radical by RHE was assessed according to the method reported by Boly et al.[112].

[4] = target: elastase enzyme; parameters: method as in doi:10.1517/13543776.3.8.1237; conditions: cited from earlier work
[5] = Cytotoxicity MTT assay; assay type: cell-based; conditions: human, WI-38 normal lung fibroblast cells, WI38 cell line, read-out: cytotoxic effect IC50
Experimental: The cytotoxicity of RHE extract was evaluated against human normal lung fibroblasts cell line WI-38 using MTT (3-(4,5-dimethylthiazol-2-yl)2,5-diphenyl tetrazolium bromide) assay[116] as recently described.

T1 sequence (P00772 27-266): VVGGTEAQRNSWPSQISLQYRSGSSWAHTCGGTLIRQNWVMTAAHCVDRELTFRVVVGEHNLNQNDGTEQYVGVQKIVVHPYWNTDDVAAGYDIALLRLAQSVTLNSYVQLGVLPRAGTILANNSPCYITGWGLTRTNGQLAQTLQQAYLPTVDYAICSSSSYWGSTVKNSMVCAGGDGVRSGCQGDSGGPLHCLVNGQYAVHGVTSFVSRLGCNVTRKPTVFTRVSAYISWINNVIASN

## c1cnc2c(c1)ccc1cccnc12 [1,10-Phenanthroline]
[1]
  IC50: 142 µM
[2]
  IC50 Collagenase: 340.8 ± 17.3 µg/mL (≈ 1890 µM)

## Cc1c(C)c2c(c(C)c1O)CCC(C)(C(=O)O)O2 (centres unmarked) [Trolox]
[3]
  DPPH (IC50, µg/mL): 6.1 ± 0.2 µg/mL and 6.11 ± 0.2 µg/mL

## CC1=CC(=O)[C@@H]2C[C@H]1C2(C)C [Verbenone]
[4]
  IC50 of elastase enzyme inhibition: picomolar range

## Nc1nc2c(ncn2COCCO)c(=O)[nH]1 [acyclovir]
[5]
  IC50: 48.6 ± 3.2 µg/mL (≈ 216 µM)
